According to publication PMC6479946 (Molecules, 2019):

What was measured:
[1] = in vivo; conditions: rat plasma, n = 8, mean ± SD; for AUC(0-t) / AUC(0-inf) / CL/F / Cmax / k el / MRT / Tmax: male, Sprague-Dawley, rat, in vivo, po; for AUC(0-t): AUC(0-t) of HAR; for AUC(0-inf): AUC(0-∞) of HAR; for CL/F: CL/F of HAR; for Cmax: Cmax of HAR; for k el: Ke of HAR; for MRT: MRT of HAR; for Tmax: Tmax of HAR
Experimental: The analytes were separated on an ACQUITY UPLC BEH C18 column (2.1 mm × 50 mm, 1.7 μm, Waters, Milford, USA). […] The flow rate was 0.3 mL/min. The column and sample-tray temperature were kept at 40 °C and 4 °C, respectively. The injection volume was 5.0 μL using a partial loop with needle over fill mode.
The compound dependent parameters used for analysis were summarized in Supplementary materials Table S1.
A rapid and convenient precipitation method was used to prepare the plasma samples. A 100 μL aliquot of plasma sample was spiked with 100 μL of IS solution and 300 μL of methanol in a 1.5 mL centrifuge tube; subsequently, the mixtures were vortex-mixed for 30.0 s and then centrifuged at 1.5 × 10^4× g for 10 min at 4 °C. A 100 μL aliquot of supernatant was combined with 25.0 μL of 0.1% formic acid water in a clean centrifuge tube and then vortex-mixed for 30 s. A 5.0 μL aliquot of mixture was injected into the UPLC-MS/MS system for analysis.
Fifty-six pathogen-free male adult rats were randomly divided into seven groups with eight rats in each group for pharmacokinetic study. […] One group was intragastrically administered with MEM hydrochloride 5.0 mg/kg dissolved in ultrapure water, namely, MEM group. […] The blood samples were immediately centrifuged at 4.0 × 10^3× g at […] for 10 min, and 100 μL of the supernatant plasma was transferred into another new 1.5 mL centrifuge tube and stored at −20 °C until UPLC-MS/MS analysis.
All standard curves and quantitative data were processed by Agilent Mass Hunter Quantitative Analysis Workstation Software. […] All the pharmacokinetic parameters were processed using the non-compartmental pharmacokinetics data analysis software program PK solutions 2.0^TM (Summit Research Services, USA). […] The AUC(0-t) was obtained by the linear/logarithmic trapezoidal rule, and the area under the plasma concentration versus time curve from zero to infinity (AUC(0-∞)) was calculated by means of the trapezoidal rule with extrapolation to infinity with a terminal elimination rate constant. The Pearson correlation coefficient analysis was processed by IBM SPSS Statistics Version 21. A statistical analysis was performed using analysis of variance with α = 0.05 as the minimal level of significance.

[2] = oral administration of 40.0 mg/kg HAR; cited from earlier work
[3] = 20 mg/kg, oral HAR 20.0 mg/kg + MEM 5.0 mg/kg (HAR-L + MEM)
[4] = 20 mg/kg, oral HAR 20.0 mg/kg alone (HAR-L)
[5] = 40 mg/kg, oral HAR 40.0 mg/kg + MEM 5.0 mg/kg (HAR-M + MEM)
[6] = 40 mg/kg, oral HAR 40.0 mg/kg alone (HAR-M)
[7] = 80 mg/kg, oral HAR 80.0 mg/kg + MEM 5.0 mg/kg (HAR-H + MEM)
[8] = 80 mg/kg, oral HAR 80.0 mg/kg alone (HAR-H)
[9] = oral HAR 20.0 mg/kg + MEM 5.0 mg/kg (HAR-L + MEM)
[10] = oral HAR 20.0 mg/kg alone (HAR-L)
[11] = oral HAR 40.0 mg/kg + MEM 5.0 mg/kg (HAR-M + MEM)
[12] = oral HAR 40.0 mg/kg alone (HAR-M)
[13] = oral HAR 80.0 mg/kg + MEM 5.0 mg/kg (HAR-H + MEM)
[14] = oral HAR 80.0 mg/kg alone (HAR-H)

## COc1ccc2c(c1)[nH]c1c(C)nccc12 [HAR, 7-methoxy-1-methyl-9H-pyrido [3,4-β] indole]
[1]; [3]
  AUC(0-t): 141 ± 56.7 ng·h/mL
  AUC(0-inf): 158 ± 65.4 ng·h/mL
  CL/F: 158 L/h/kg
  Cmax: 64.5 ± 14.7 ng/mL
  k el: 8.67e-05 s⁻¹
  MRT: 4.02 ± 1.96 h
  Tmax: 0.5 ± 0.267 h
[1]; [4]
  AUC(0-t): 74.9 ± 36.3 ng·h/mL
  AUC(0-inf): 83.1 ± 38.9 ng·h/mL
  CL/F: 323 L/h/kg
  Cmax: 31.4 ± 16.3 ng/mL
  k el: 0.000119 s⁻¹
  MRT: 3.36 ± 1.38 h
  Tmax: 0.5 ± 0.267 h
[1]; [5]
  AUC(0-t): 139 ± 40.6 ng·h/mL
  AUC(0-inf): 153 ± 43.1 ng·h/mL
  CL/F: 278 L/h/kg
  Cmax: 86.6 ± 31 ng/mL
  k el: 4.83e-05 s⁻¹
  MRT: 3.28 ± 1.02 h
  Tmax: 0.24 ± 0.129 h
[1]; [6]
  AUC(0-t): 100 ± 44.8 ng·h/mL
  AUC(0-inf): 109 ± 47.9 ng·h/mL
  CL/F: 431 L/h/kg
  Cmax: 77 ± 53.8 ng/mL
  k el: 0.000132 s⁻¹
  MRT: 2.83 ± 1.41 h
  Tmax: 0.365 ± 0.271 h
[1]; [7]
  AUC(0-t): 1060 ± 540 ng·h/mL
  AUC(0-inf): 1110 ± 508 ng·h/mL
  CL/F: 91.2 L/h/kg
  Cmax: 755 ± 298 ng/mL
  k el: 0.000127 s⁻¹
  MRT: 2.88 ± 1.93 h
  Tmax: 0.448 ± 0.63 h
[1]; [8]
  AUC(0-t): 502 ± 180 ng·h/mL
  AUC(0-inf): 587 ± 275 ng·h/mL
  CL/F: 163 L/h/kg
  Cmax: 368 ± 253 ng/mL
  k el: 0.000116 s⁻¹
  MRT: 3.17 ± 1.48 h
  Tmax: 0.344 ± 0.186 h
[1]; [9]
  Ka of HAR: 1.91 ± 2.46 h⁻¹
  T1/2a of HAR: 1.57 ± 2.28 h
  T1/2e of HAR: 2.89 ± 2.26 h
  T1/2d of HAR: 1.22 ± 1.24 h
  Vd of HAR: 59.0 ± 35.1 (L/kg) × 10
[1]; [10]
  Ka of HAR: 1.66 ± 2.27 h⁻¹
  T1/2a of HAR: 1.29 ± 1.25 h
  T1/2e of HAR: 2.05 ± 1.11 h
  T1/2d of HAR: 2.14 ± 2.57 h
  Vd of HAR: 80.3 ± 39.2 (L/kg) × 10
[1]; [11]
  Ka of HAR: 1.52 ± 1.08 h⁻¹
  T1/2a of HAR: 1.18 ± 1.22 h
  T1/2e of HAR: 4.33 ± 1.31 h
  T1/2d of HAR: 2.33 ± 2.71 h
  Vd of HAR: 172 ± 61.6 (L/kg) × 10
[1]; [12]
  Ka of HAR: 2.69 ± 2.60 h⁻¹
  T1/2a of HAR: 0.529 ± 0.478 h
  T1/2e of HAR: 2.28 ± 1.86 h
  T1/2d of HAR: 0.960 ± 0.734 h
  Vd of HAR: 136 ± 105 (L/kg) × 10
[1]; [13]
  Ka of HAR: 2.93 ± 2.06 h⁻¹
  T1/2a of HAR: 0.357 ± 0.228 h
  T1/2e of HAR: 3.21 ± 3.17 h
  T1/2d of HAR: 1.40 ± 1.74 h
  Vd of HAR: 60.3 ± 89.6 (L/kg) × 10
[1]; [14]
  Ka of HAR: 2.80 ± 2.74 h⁻¹
  T1/2a of HAR: 0.605 ± 0.546 h
  T1/2e of HAR: 2.35 ± 1.44 h
  T1/2d of HAR: 1.36 ± 1.37 h
  Vd of HAR: 51.4 ± 33.1 (L/kg) × 10
[2]
  maximum peak concentration (Cmax) of HAR: 67.1 ± 34.3 ng/mL
